Results published in patent US5693626A, “Tetrahydrofuran antifungals” (Schering Corporation, priority 1995, dated 1997).
Values after ≈ are worked out from the molar mass of the structure shown.

Assays:
[1] = test system: Aspergillus; experiment: broth dilution MIC, Aspergillus; assay type: cell-based, Aspergillus (flavus, fumigatus and other species); conditions: for percentage of strains with MICs ≤1 mcg/ml / MIC90: Aspergillus, 37 strains; for percentage of strains with MICs ≤1 mcg/ml: Table Q; for MIC90: Table S
[2] = test system: Candida albicans; experiment: broth dilution MIC, Candida albicans; assay type: cell-based; conditions: 26 strains; for percentage of strains with MICs ≤1 mcg/ml: Table Q; for MIC90: Table S
Method: (§1) The in vitro antifungal activity tests were performed via conventional broth dilution methods in Sabouraud dextrose broth ("SDB") medium and Eagles Minimum Essential Medium ("EMEM") against a large number of fungi. Minimum Inhibitory Concentrations ("MICs") were measured after 24, 48 and 72 hour tests. In many cases, Minimum Fungicidial Concentrations ("MFCS") were measured after 48 and 72 hours.

[3] = test system: Candida krusei; experiment: broth dilution MIC, Candida krusei; assay type: cell-based; conditions: 16 strains; for percentage of strains with MICs ≤1 mcg/ml: Table Q; for MIC90: Pichia kudriavzevii, Table S
[4] = test system: Candida tropicalis & stellatoidea; experiment: broth dilution MIC, Candida tropicalis & stellatoidea; assay type: cell-based; conditions: 5 strains; for percentage of strains with MICs ≤1 mcg/ml: Table Q; for MIC90: Table S
Method: as §1

[5] = test system: Candida glabrata; experiment: broth dilution MIC, Candida glabrata; assay type: cell-based; conditions: 9 strains; for percentage of strains with MICs ≤1 mcg/ml: Table Q
Method: as §1

[6] = test system: Cryptococcus neoformans; experiment: broth dilution MIC, Cryptococcus neoformans; assay type: cell-based; conditions: 3 strains; for percentage of strains with MICs ≤1 mcg/ml: Table Q; for MIC90: Table S
Method: as §1

[7] = test system: Dermatophytes; experiment: broth dilution MIC, Dermatophytes; assay type: cell-based, T. rubrum, T. mentagrophytes, and T. tonsurans; conditions: 6 strains; for percentage of strains with MICs ≤1 mcg/ml: Table Q; for MIC90: Table S
[8] = test system: Aspergillus; experiment: broth dilution MFC, Aspergillus; assay type: cell-based, Aspergillus (flavus, fumigatus and other species); conditions: for percentage of strains with MFCs ≤1 mcg/ml: Aspergillus, 37 strains, Table R
[9] = test system: Candida krusei; experiment: broth dilution MFC, Candida krusei; assay type: cell-based; conditions: 16 strains, Table R
Method: as §1

[10] = test system: Candida glabrata; experiment: broth dilution MFC, Candida glabrata; assay type: cell-based; conditions: 9 strains, Table R
Method: as §1

[11] = test system: Cryptococcus neoformans; experiment: broth dilution MFC, Cryptococcus neoformans; assay type: cell-based; conditions: 3 strains, Table R
Method: as §1

[12] = test system: Dermatophytes; experiment: broth dilution MFC, Dermatophytes; assay type: cell-based, T. rubrum, T. mentagrophytes, and T. tonsurans; conditions: 6 strains, Table R
Method: as §1

[13] = test system: Candida albicans; experiment: broth dilution MFC, Candida albicans; conditions: 26 strains, Table R
Method: as §1

[14] = test system: Candida tropicalis & stellatoidea; experiment: broth dilution MFC, Candida tropicalis & stellatoidea; conditions: 5 strains, Table R
Method: as §1

[15] = Janssen U.S. Pat. No. 4,791,111; cited from earlier work
[16] = serum levels following oral dosing, mice; assay type: in vivo; conditions: methyl cellulose formulation
[17] = serum levels following oral dosing, rats; assay type: in vivo; conditions: methyl cellulose formulation
[18] = serum levels following oral dosing, dogs; assay type: in vivo; conditions: methyl cellulose formulation
[19] = serum levels following oral dosing, monkeys; assay type: in vivo; conditions: methyl cellulose formulation
[20] = test system: cytochrome P-450 liver drug metabolizing enzymes; experiment: induction of cytochrome P-450 after oral administration in an in vivo rat model

| SMILES | percentage of strains with MICs ≤1 mcg/ml [1] | percentage of strains with MICs ≤1 mcg/ml [2] | percentage of strains with MICs ≤1 mcg/ml [3] | MIC90 [3] [µg/mL] | percentage of strains with MICs ≤1 mcg/ml [4] | MIC90 [4] [µg/mL] | percentage of strains with MICs ≤1 mcg/ml [5] | percentage of strains with MICs ≤1 mcg/ml [6] | MIC90 [6] [µg/mL] | percentage of strains with MICs ≤1 mcg/ml [7] | MIC90 [7] [µg/mL] | percentage of strains with MFCs ≤1 mcg/ml [8] | percentage of strains with MFCs ≤1 mcg/ml [9] | percentage of strains with MFCs ≤1 mcg/ml [10] | percentage of strains with MFCs ≤1 mcg/ml [11] | percentage of strains with MFCs ≤1 mcg/ml [12] | percentage of strains with MFCs ≤1 mcg/ml [13] | percentage of strains with MFCs ≤1 mcg/ml [14] | MIC90 [1] [µg/mL] | MIC90 [2] [µg/mL] | other results |
| --- | --- | --- | --- | --- | --- | --- | --- | --- | --- | --- | --- | --- | --- | --- | --- | --- | --- | --- | --- | --- | --- |
| CC[C@H]([C@H](C)O)n1ncn(-c2ccc(N3CCN(c4ccc(OC[C@@H]5CO[C@@](Cn6cncn6)(c6ccc(F)cc6F)C5)cc4)CC3)cc2)c1=O | 100 percentage of strains | 100 percentage of strains | 100 percentage of strains | 0.058 (≈ 0.0828 µM) | 100 percentage of strains | 0.117 (≈ 0.167 µM) | 22 percentage of strains | 100 percentage of strains | 0.05 (≈ 0.0713 µM) | 100 percentage of strains | 0.165 (≈ 0.235 µM) | 50 percentage of strains | 88 percentage of strains | 22 percentage of strains | 100 percentage of strains | 67 percentage of strains | 100 percentage of strains | 100 percentage of strains |  |  |  |
| CC[C@@H]([C@@H](C)O)n1ncn(-c2ccc(N3CCN(c4ccc(OC[C@@H]5CO[C@@](Cn6cncn6)(c6ccc(F)cc6F)C5)cc4)CC3)cc2)c1=O | 100 percentage of strains | 100 percentage of strains | 100 percentage of strains | 0.12 (≈ 0.171 µM) | 100 percentage of strains | 0.354 (≈ 0.505 µM) | 33 percentage of strains | 100 percentage of strains | 0.101 (≈ 0.144 µM) | 100 percentage of strains | 0.707 (≈ 1.01 µM) | 89 percentage of strains | 100 percentage of strains | 22 percentage of strains | 100 percentage of strains | 100 percentage of strains | 100 percentage of strains | 100 percentage of strains | 0.112 (≈ 0.16 µM) | 0.139 (≈ 0.198 µM) |  |
| CC(O)C(C)n1ncn(-c2ccc(N3CCN(c4ccc(OCC5COC(Cn6cncn6)(c6ccc(Cl)cc6Cl)O5)cc4)CC3)cc2)c1=O (single isomer, unassigned; (+)) [(+)cis-4-[4-[4-[4-[[2-2,4-dichlorophenyl)-2-(1H-1,2,4-triazol-1-ylmethyl)-1,3-dioxolan-4-yl]methoxy]phenyl]-1-piperazinyl]-2,4dihydro-2-(2-hydroxy-1-methylpropyl)-3H-1,2,4-triazol-3-one] |  |  |  |  |  |  |  |  |  |  |  |  |  |  |  |  |  |  |  |  | solubility [15]: increased solubility |
| CC[C@@H]([C@H](C)O)n1ncn(-c2ccc(N3CCN(c4ccc(OC[C@@H]5CO[C@@](Cn6cncn6)(c6ccc(F)cc6F)C5)cc4)CC3)cc2)c1=O [drawing 21] |  |  |  |  |  |  |  |  |  |  |  |  |  |  |  |  |  |  |  |  | serum levels compared to azoles of similar structure [16]: consistently higher serum levels; serum levels compared to azoles of similar structure [17]: consistently higher serum levels; serum levels compared to azoles of similar structure [18]: consistently higher serum levels; serum levels compared to azoles of similar structure [19]: consistently higher serum levels; induction of cytochrome P-450 liver drug metabolizing enzymes [20]: not inducers |
| CC[C@@H]([C@H](C)O)n1ncn(-c2ccc(N3CCN(c4ccc(OC[C@@H]5CO[C@@](Cn6cncn6)(c6ccc(F)cc6F)C5)cc4)CC3)cc2)c1=O [drawing 23] | 100 percentage of strains | 100 percentage of strains | 100 percentage of strains | 0.014 (≈ 0.02 µM) | 100 percentage of strains | 0.117 (≈ 0.167 µM) | 22 percentage of strains | 100 percentage of strains | 0.007 (≈ 0.00999 µM) | 100 percentage of strains | 0.101 (≈ 0.144 µM) | 62 percentage of strains | 94 percentage of strains | 22 percentage of strains | 100 percentage of strains | 83 percentage of strains | 100 percentage of strains | 100 percentage of strains | 0.096 (≈ 0.137 µM) | 0.174 (≈ 0.248 µM) | MIC90 ([5]; Nakaseomyces glabratus, Table S): 17.1 µg/mL (≈ 24.4 µM) |
| OC(Cn1cncn1)(Cn1cncn1)c1ccc(F)cc1F [fluconazole, reference compound] | 0 percentage of strains | 100 percentage of strains | 0 percentage of strains |  | 100 percentage of strains |  | 0 percentage of strains | 0 percentage of strains |  | 100 percentage of strains |  | 0 percentage of strains | 0 percentage of strains | 0 percentage of strains | 0 percentage of strains | 0 percentage of strains | 100 percentage of strains | 100 percentage of strains |  |  | MIC ([1]; SDB, 37 species of Aspergillus, bounds printed with ≤, b40, read-out: geometric mean MIC): ≤ 32 µg/mL; MFC ([8]; SDB, 37 species of Aspergillus, bounds printed with ≤, b40, read-out: geometric mean MFC): ≤ 32 µg/mL |
